system: Alternaria solani; assay: Alternaria solani (early blight of tomato/potato) mycelial radial growth on Potato Dextrose Agar; settings: 168 h, read-out: control
Protocol: Compounds were dissolved in 0.3% DMSO & then added to Potato Dextrose Agar medium just prior to dispensing it into Petri dishes. 5 ml medium with compound in the desired concentration was dispensed into 60 mm sterile petri-plates. After solidification each plate was seeded with 5 mm size mycelial disc taken form periphery of actively growing virulent culture plate. Plates were incubated in growth chambers at 25° C. temperature and 60% relative humidity for seven days and radial growth was measured.

SMILES | inhibition of growth at 300 ppm [%]
CN(CCOc1ccccc1)C(=O)c1ccc(-c2n[nH]c(C(F)(F)F)n2)cc1 [Compound 11, N-methyl-N-(2-phenoxyethyl)-4-(5-(trifluoromethyl)-1h-1,2,4-triazol-3-yl)benzamide] | > 70
CS(=O)(=Nc1ccc(C2=NOC(C(F)(F)F)N2)cc1)c1ccc(C(F)(F)F)cc1 (stereo not shown) [Compound 26, Methyl((4-(5-(trifluoromethyl)-4,5-dihydro-1,2,4-oxadiazol-3-yl)phenyl)imino)(4-(trifluoromethyl)phenyl)-λ^6-sulfanone] | > 70
O=C(Cc1ccccc1)Nc1ccc(-c2noc(C(F)F)n2)cc1 [Compound 31, N-(4-(5-(difluoromethyl)-1,2,4-oxadiazol-3-yl)phenyl)-2-phenylacetamide] | > 70
CN(Cc1ccc(-c2n[nH]c(C(F)(F)F)n2)cc1)C(=O)C1CC1 [Compound 37, N-methyl-N-(4-(5-(trifluoromethyl)-1h-1,2,4-triazol-3-yl)benzyl)cyclopropanecarboxamide] | > 70
CN(Cc1ccc(-c2n[nH]c(C(F)(F)F)n2)cc1)C(=O)C1CCC1 [Compound 38, N-methyl-N-(4-(5-(trifluoromethyl)-1h-1,2,4-triazol-3-yl)benzyl)cyclobutanecarboxamide] | > 70
CS(=O)(=NC(=O)c1ccc(-c2cc(C(F)(F)F)on2)cc1)c1ccccn1 (stereo not shown) [Compound 62, N-(methyl(oxo)(pyridin-2-yl)-λ^6-sulfaneylidene)-4-(5-(trifluoromethyl)isoxazol-3-yl)benzamide] | > 70

system: Phakopsora pachyrhizi; assay: Phakopsora pachyrhizi test in soybean, preventive spray in greenhouse; type: in vivo; settings: preventive spray on soybean plants, inoculated one day after treatment, compared to the untreated check, read-out: control (efficacy from disease severity rating)

SMILES | pest or weed control at 500 ppm [%]
CC(C)(C)C(=O)NCc1ccc(-c2n[nH]c(C(F)(F)F)n2)cc1 [Compound 3, N-(4-(5-(trifluoromethyl)-1h-1,2,4-triazol-3-yl)benzyl)pivalamide] | > 90
CC(C(=O)Nc1ccc(C2=NOC(C(F)(F)F)N2)cc1)c1ccccc1 (stereo not shown) [Compound 20, 2-phenyl-N-(4-(5-(trifluoromethyl)-4,5-dihydro-1,2,4-oxadiazol-3-yl)phenyl)propanamide] | > 90
CN(Cc1ccc(C2=NOC(C(F)(F)F)N2)cc1)C(=O)C1CC1 (stereo not shown) [Compound 21, N-methyl-N-(4-(5-(trifluoromethyl)-4,5-dihydro-1,2,4-oxadiazol-3-yl)benzyl)cyclopropanecarboxamide] | > 90
CN(Cc1ccc(C2=NOC(C(F)(F)F)N2)cc1)C(=O)C1CCC1 (stereo not shown) [Compound 22, N-methyl-N-(4-(5-(trifluoromethyl)-4,5-dihydro-1,2,4-oxadiazol-3-yl)benzyl)cyclobutanecarboxamide] | > 90
O=C(Cc1ccccc1)Nc1ccc(C2=NOC(C(F)(F)F)N2)cc1 (stereo not shown) [Compound 23, 2-phenyl-N-(4-(5-(trifluoromethyl)-4,5-dihydro-1,2,4-oxadiazol-3-yl)phenyl)acetamide] | > 90
O=C(Nc1ccc(Cl)cc1F)c1ccc(C2=NOC(C(F)(F)F)N2)cc1 (stereo not shown) [Compound 29, N-(4-chloro-2-fluorophenyl)-4-(5-(trifluoromethyl)-4,5-dihydro-1,2,4-oxadiazol-3-yl)benzamide] | > 90
Cn1nc(C(F)(F)F)nc1-c1ccc(S(=O)(=O)c2ccccc2)cc1 [Compound 34, 1-methyl-5-(4-(phenylsulfonyl)phenyl)-3-(trifluoromethyl)-1h-1,2,4-triazole] | > 90
CS(=O)(=Nc1ccc(-c2n[nH]c(C(F)(F)F)n2)cc1)c1ccc(C(F)(F)F)cc1 (stereo not shown) [Compound 40, Methyl((4-(5-(trifluoromethyl)-1h-1,2,4-triazol-3-yl)phenyl)imino)(4-(trifluoromethyl)phenyl)-λ^6-sulfanone] | > 90
COc1ccc(S(C)(=O)=Nc2ccc(-c3n[nH]c(C(F)(F)F)n3)cc2)cc1 (stereo not shown) [Compound 43, (4-methyoxyphenyl)(methyl)((4-(5-(trifluoromethyl)-1h-1,2,4-triazol-3-yl)phenyl)imino)-λ^6-sulfanone] | > 90
O=C(Nc1ccc(F)cc1F)c1ccc(-c2nc(C(F)(F)F)n[nH]2)cc1 [Compound 44, N-(2,4-difluorophenyl)-4-(3-(trifluoromethyl)-1h-1,2,4-triazol-5-yl)benzamide] | > 90
CS(=O)(=NCc1ccc(-c2n[nH]c(C(F)(F)F)n2)cc1)c1cccnc1 (stereo not shown) [Compound 47, Methyl(pyridin-3-yl)((4-(5-(trifluoromethyl)-1h-1,2,4-triazol-3-yl)benzyl)imino)-λ^6-sulfanone] | > 90
O=C(Nc1ccc(F)cc1F)c1ccc(-c2cc(C(F)(F)F)on2)cc1 [Compound 57, N-(2,4-difluorophenyl)-4-(5-(trifluoromethyl)isoxazol-3-yl)benzamide] | > 90
CN(CCOc1ccccc1)C(=O)c1ccc(-c2cc(C(F)(F)F)on2)cc1 [Compound 65, N-methyl-N-(2-phenoxyethyl)-4-(5-(trifluoromethyl)isoxazol-3-yl)benzamide] | > 90
CS(=O)(=NC(=O)c1ccc(-c2cc(C(F)(F)F)on2)cc1)c1ccccc1 (stereo not shown) [Compound 66, N-(methyl(oxo)(phenyl)-λ^6-sulfaneylidene)-4-(5-(trifluoromethyl)isoxazol-3-yl)benzamide] | > 90
CS(=O)(=NC(=O)c1ccc(-c2coc(C(F)(F)F)n2)cc1)c1ccc(F)cc1 (stereo not shown) [Compound 69, N-((4-fluorophenyl)(methyl)(oxo)-λ^6-sulfaneylidene)-4-(2-(trifluoromethyl)oxazol-4-yl)benzamide] | > 90
O=C(Nc1ccc(F)cc1F)c1ccc(-c2nc(C(F)(F)F)oc2Cl)cc1 [Compound 70, 4-(5-chloro-2-(trifluoromethyl)oxazol-4-yl)-N-(2,4-difluorophenyl)benzamide] | > 90
CN(CCOc1ccccc1)C(=O)c1ccc(-c2nc(C(F)(F)F)oc2Cl)cc1 [Compound 71, 4-(5-chloro-2-(trifluoromethyl)oxazol-4-yl)-N-methyl-N-(2-phenoxyethyl)benzamide] | > 90
CS(=O)(=NC(=O)c1ccc(-c2coc(C(F)(F)F)n2)cc1)c1ccc(Cl)cc1 (stereo not shown) [Compound 72, N-((4-chlorophenyl)(methyl)(oxo)-λ^6-sulfaneylidene)-4-(2-(trifluoromethyl)oxazol-4-yl)benzamide] | > 90
CS(=O)(=NC(=O)c1ccc(-c2nc(C(F)(F)F)oc2Cl)cc1)c1ccccc1 (stereo not shown) [Compound 74, 4-(5-chloro-2-(trifluoromethyl)oxazol-4-yl)-N-(methyl(oxo)(phenyl)-λ^6-sulfaneylidene)benzamide] | > 90
O=C(Nc1ccc(F)cc1F)c1ccc(-c2coc(C(F)(F)F)n2)cc1 [Compound 77, N-(2,4-difluorophenyl)-4-(2-(trifluoromethyl)oxazol-4-yl)benzamide] | > 90
O=C(Nc1c(F)cccc1F)c1ccc(-c2coc(C(F)(F)F)n2)cc1 [Compound 80, N-(2,6-difluorophenyl)-4-(2-(trifluoromethyl)oxazol-4-yl)benzamide] | > 90
CS(=O)(=NC(=O)c1ccc(-c2coc(C(F)(F)F)n2)cc1)c1ccccc1 (stereo not shown) [Compound 83, N-(methyl(oxo)(phenyl)-λ^6-sulfaneylidene)-4-(2-(trifluoromethyl)oxazol-4-yl)benzamide] | > 90
